The values that follow come from patent US20040220205A1 (priority 2001, published 2004).

In assay [1] the test system is dopamine release (striatum). Put plainly: Microdialysis experiment (striatum) with one entero-coated tablet. Type of assay: in vivo. Conditions: rat striatum microdialysis. The protocol: One entero-coated tablet prepared as described in Example 1 and containing about 5 mg of NPA hydrochloride was administered to a rat in the way described in Pharmacological Experiment 2 and a standard microdialysis was carried out.
Pharmacological Experiment 2 was repeated but using an entero-coated tablet containing about 5 mg of mono-pivaloyl-apomorphine base instead of NPA hydrochloride.
(§1) Pharmacological Experiment 2 was repeated but using an enterocoated tablet prepared as described in Example 3 containing about 1 mg of mono-pivaloyl-N-propyl-noraporphine (MPNPA) base instead of NPA hydrochloride.

The next assay relates to rats. Put plainly: Behavioural experiment - injection into duodenum (with oral control). Type of assay: in vivo, rat. Conditions: for duration of dopaminergic behavior: dur (total duration of action) / duration of dopaminergic behavior: intense stereotypy / duration of dopaminergic behavior: less intense stereotypy: rat, bolus injection into duodenum; for duration of dopaminergic behavior: intense stereotypy / duration of dopaminergic behavior: less intense stereotypy: period after injection. From the text: These rats had been operated 1-14 days before the experiment. A plastic tubing was introduced entering through the duodenum wall at about the mid section and bent in such a way that it had its duct directed downwards (i.e. aiming downstream towards the jejunum and being about 2 cm long). An experienced scientist observed the animals for the entire period of pharmacological activity, scoring the behavior and emphasizing the following details:
yawning, sniffing, chewing, licking, rearing, grooming, penile grooming, locomotor activity and stereotypy. The total duration of action where one or several of these behaviors were present was scored.

In another assay the test system is rat. Put plainly: Behavioural experiment - entero-coated pill. Type of assay: in vivo. How it is done:
One entero-coated tablet prepared as described in Example 1 and containing about 5 mg of NPA hydrochloride was placed under anesthesia (isoflurane) in the throat of a rat and pushed down the throat with a blunt instrument. Within five minutes, the rat was awake and exploring the cage. After about 3 to 4 hours, the rat began to show dopaminergic stimulatory signs like sniffing, chewing, penile licking, grooming and stereotypy with rearing, locomotor activity, intense sniffing and also licking. This stereotypy lasted for more than 24 hours.
as §1

The conditions of assay [2]: earlier reports on symmetric di-esters of aporphines; cited from earlier work.
Where [3] appears, read: one entero-coated tablet containing about 5 mg mono-pivaloyl-apomorphine base.
[4] abbreviates: control experiment, administered orally to the same rat, 4 mg/kg.
Where [5] appears, read: one entero-coated tablet containing about 5 mg NPA hydrochloride.
Setting [6] is: one entero-coated tablet containing about 5 mg, pushed down the throat.

“And” between values parts separate entries of the source, which are not always exact repeats. Identical values can stand only once. Counter-ions that a name gives are not always drawn.

As to monopivaloyl-apomorphine [Mono-Piv-Apo], in assay [1] (setting [3]), the “dopamine release at maximal decrease” value is recorded as 80 % of control values, the “maximal decrease of dopamine release” value was determined as 20%, the “time after which dopamine release decreases” value is “about 60 minutes” and the “time until dopamine release is back to control values” is given as “after about eight hours”. Further, in the assay with rats (4.6 mg/kg), the “duration of dopaminergic behavior: dur (total duration of action)” value (“duration of dopaminergic behavior: dur” for short) was 120 min, the “duration of dopaminergic behavior: intense stereotypy” value is on record as “intense stereotypy (5-105); less intense min” and the “duration of dopaminergic behavior: less intense stereotypy” value (“duration … less intense stereotypy” for short) was in the range of 105 to 115 min. Further, in the assay with rats (5.9 mg/kg), the “duration of dopaminergic behavior: dur” value is 135 min and 120 min. The “duration … less intense stereotypy” value in the assay with rats (5.9 mg/kg, 5.9 mg/kg) is 105 to 130 min and 80 to 90 min.
For the compound `CN1CCc2cccc3c2[C@H]1Cc1ccc(O)c(O)c1-3` [Apomorphine Hydrochloride, apomorphine hydrochloride], in the assay with rats (setting [4]), the dopaminergic stimulation observed entry is listed as “Very weak dopaminergic stimulation” and the “time period in which dopaminergic effects were observed” value lay in the range of 10 to 20 min. Besides, in the assay with rats (4.0 mg/kg), the “duration of dopaminergic behavior: dur” value worked out at 90 min, the “duration of dopaminergic behavior: intense stereotypy” value was “intense stereotypy (5-75); less intense min” and the “duration … less intense stereotypy” value lay within 75 to 85 min. The “duration of dopaminergic behavior: dur” value in the assay with rats (5.0 mg/kg, hydrochloride) is 95 min and 60 min. Further, in the assay with rats (5.0 mg/kg, hydrochloride, 5 mg/kg), the “duration … less intense stereotypy” value was 40 to 90 min and 45 to 55 min.
For `CCCN1CCc2cccc3c2[C@H]1Cc1ccc(O)c(O)c1-3` [NPA hydrochloride, 6aR-(-)-N-propyl-norapomorphine], in assay [1] (setting [5]), the “dopamine release, maximal decrease” value is reported as “about 20% of control values” and the “time of maximal decrease in dopamine release” value was “after about four hours”. Besides, in assay [1] (one entero-coated tablet containing about 5 mg NPA hydrochloride, until the experiment was stopped), the “duration of maximal decrease in dopamine release” value was “lasting for several hours”. Also, in the assay on rat (setting [6]), the duration of stereotypy entry was “more than 24 hours” and the “time until dopaminergic stimulatory signs began” value fell in the range of 3 to 4 h.
With `CN1CCc2cccc3c2C1Cc1ccc(OC(=O)C(C)(C)C)c(OC(=O)C(C)(C)C)c1-3` (stereo not drawn) [di-pivaloyl ester, di-pivaloyl esters of apomorphine], the “activity compared with parent compound apomorphine” value in assay [2] is “much less active”.
For the compound `CCCN1CCc2cccc3c2[C@H]1Cc1ccc(O)c(O)c1-3` [NPA, 6aR-(-)-N-propyl-norapomorphine], the “duration of dopaminergic behavior: dur” value in the assay on rats (5.0 mg/kg) is more than 540 min.
For the compound `CCCN1CCc2cccc3c2C1Cc1ccc(O)c(OC(=O)C(C)(C)C)c1-3` (stereo not drawn) [MPNPA, mono-pivaloyl-N-propyl-noraporphine], in assay [1] (one entero-coated tablet containing about 1 mg MPNPA base), the “period of continuous decrease of dopamine release” value is “between one hour and four hours”. In addition, the dopamine release in assay [1] (one entero-coated tablet containing about 1 mg MPNPA base, at 18 hours after application of the pill) is given as 80 % of controls. Also, the “dopamine release, maximal decrease” value in assay [1] (one entero-coated tablet containing about 1 mg MPNPA base, at four hours) is 30 % of controls. For the same compound, the “period of intense stereotypy” value with rat (one entero-coated tablet containing about 1 mg MPNPA base, observed during the microdialysis experiment) is “between four hours and eight hours”.
